In PubChem BioAssay (NCI):
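Compound exposure: 48 hours, 5 concentrations, 96-well plates. GI50 is the concentration that inhibits growth by half. TGI: concentration producing complete growth inhibition.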

Assays:
Experiment in all cases: NCI anticancer screen, dose series, 48 h
786-0 renal = system: 786-0 renal
A549 NSCLC = system: A549 NSCLC
ACHN renal = system: ACHN renal
CAKI-1 renal = system: CAKI-1 renal
CCRF-CEM leukemia = system: CCRF-CEM leukemia
COLO 205 colon = system: COLO 205 colon
DU-145 prostate = system: DU-145 prostate
EKVX NSCLC = system: EKVX NSCLC
HCC-2998 colon = system: HCC-2998 colon
HCT-116 colon = system: HCT-116 colon
HCT-15 colon = system: HCT-15 colon
HOP-62 NSCLC = system: HOP-62 NSCLC
HS 578T breast = system: HS 578T breast
HT29 colon = system: HT29 colon
IGROV1 ovarian = system: IGROV1 ovarian
K-562 leukemia = system: K-562 leukemia
KM12 colon = system: KM12 colon
LOX IMVI melanoma = system: LOX IMVI melanoma
M14 melanoma = system: M14 melanoma
MALME-3M melanoma = system: MALME-3M melanoma
MCF7 breast = system: MCF7 breast
MDA-MB-231 breast = system: MDA-MB-231 breast
MDA-MB-435 = system: MDA-MB-435
NCI-H226 lung = system: NCI-H226 lung
NCI-H23 lung = system: NCI-H23 lung
NCI-H460 lung = system: NCI-H460 lung
NCI-H522 lung = system: NCI-H522 lung
NCI/ADR-RES ovarian = system: NCI/ADR-RES ovarian
OVCAR-3 ovarian = system: OVCAR-3 ovarian
OVCAR-4 ovarian = system: OVCAR-4 ovarian
OVCAR-5 ovarian = system: OVCAR-5 ovarian
OVCAR-8 ovarian = system: OVCAR-8 ovarian
PC-3 prostate = system: PC-3 prostate
RPMI-8226 leukemia = system: RPMI-8226 leukemia
SF-268 CNS = system: SF-268 CNS
SF-295 CNS = system: SF-295 CNS
SK-MEL-2 melanoma = system: SK-MEL-2 melanoma
SK-MEL-28 melanoma = system: SK-MEL-28 melanoma
SK-MEL-5 melanoma = system: SK-MEL-5 melanoma
SK-OV-3 ovarian = system: SK-OV-3 ovarian
SN12C renal = system: SN12C renal
SNB-19 CNS = system: SNB-19 CNS
SNB-75 CNS = system: SNB-75 CNS
SR leukemia = system: SR leukemia
SW-620 colon = system: SW-620 colon
T-47D breast = system: T-47D breast
TK-10 renal = system: TK-10 renal
U251 CNS = system: U251 CNS
UACC-257 melanoma = system: UACC-257 melanoma
UACC-62 melanoma = system: UACC-62 melanoma
UO-31 renal = system: UO-31 renal

Question: Which results are given for `COC(=O)c1ccc2c(c1)C(=O)c1c-2n(CCCCl)c(=O)c2cc(OC)c(OC)cc12`?
Answer: GI50 (786-0 renal): > 100 µM; TGI (786-0 renal): > 100 µM; GI50 (A549 NSCLC): > 100 µM; TGI (A549 NSCLC): > 100 µM; GI50 (ACHN renal): > 100 µM; TGI (ACHN renal): > 100 µM; GI50 (CAKI-1 renal): > 100 µM; TGI (CAKI-1 renal): > 100 µM; GI50 (CCRF-CEM leukemia): > 100 µM; TGI (CCRF-CEM leukemia): > 100 µM; GI50 (COLO 205 colon): > 100 µM; TGI (COLO 205 colon): > 100 µM; GI50 (DU-145 prostate): > 100 µM; TGI (DU-145 prostate): > 100 µM; GI50 (EKVX NSCLC): > 100 µM; TGI (EKVX NSCLC): > 100 µM; GI50 (HCC-2998 colon): > 100 µM; TGI (HCC-2998 colon): > 100 µM; GI50 (HCT-116 colon): > 100 µM; TGI (HCT-116 colon): > 100 µM; GI50 (HCT-15 colon): > 100 µM; TGI (HCT-15 colon): > 100 µM; GI50 (HOP-62 NSCLC): > 100 µM; TGI (HOP-62 NSCLC): > 100 µM; GI50 (HS 578T breast): > 100 µM; TGI (HS 578T breast): > 100 µM; GI50 (HT29 colon): > 100 µM; TGI (HT29 colon): > 100 µM; GI50 (IGROV1 ovarian): > 100 µM; TGI (IGROV1 ovarian): > 100 µM; GI50 (K-562 leukemia): > 100 µM; TGI (K-562 leukemia): > 100 µM; GI50 (KM12 colon): > 100 µM; TGI (KM12 colon): > 100 µM; GI50 (LOX IMVI melanoma): > 100 µM; TGI (LOX IMVI melanoma): > 100 µM; GI50 (M14 melanoma): > 100 µM; TGI (M14 melanoma): > 100 µM; GI50 (MALME-3M melanoma): > 100 µM; TGI (MALME-3M melanoma): > 100 µM; GI50 (MCF7 breast): > 100 µM; TGI (MCF7 breast): > 100 µM; GI50 (MDA-MB-231 breast): > 100 µM; TGI (MDA-MB-231 breast): > 100 µM; GI50 (MDA-MB-435): > 100 µM; TGI (MDA-MB-435): > 100 µM; GI50 (NCI-H226 lung): > 100 µM; TGI (NCI-H226 lung): > 100 µM; GI50 (NCI-H23 lung): > 100 µM; TGI (NCI-H23 lung): > 100 µM; GI50 (NCI-H460 lung): > 100 µM; TGI (NCI-H460 lung): > 100 µM; GI50 (NCI-H522 lung): > 100 µM; TGI (NCI-H522 lung): > 100 µM; GI50 (NCI/ADR-RES ovarian): > 100 µM; TGI (NCI/ADR-RES ovarian): > 100 µM; GI50 (OVCAR-3 ovarian): > 100 µM; TGI (OVCAR-3 ovarian): > 100 µM; GI50 (OVCAR-4 ovarian): > 100 µM; TGI (OVCAR-4 ovarian): > 100 µM; GI50 (OVCAR-5 ovarian): > 100 µM; TGI (OVCAR-5 ovarian): > 100 µM; GI50 (OVCAR-8 ovarian): > 100 µM; TGI (OVCAR-8 ovarian): > 100 µM; GI50 (PC-3 prostate): > 100 µM; TGI (PC-3 prostate): > 100 µM; GI50 (RPMI-8226 leukemia): 75.2 µM; TGI (RPMI-8226 leukemia): > 100 µM; GI50 (SF-268 CNS): > 100 µM; TGI (SF-268 CNS): > 100 µM; GI50 (SF-295 CNS): > 100 µM; TGI (SF-295 CNS): > 100 µM; GI50 (SK-MEL-2 melanoma): > 100 µM; TGI (SK-MEL-2 melanoma): > 100 µM; GI50 (SK-MEL-28 melanoma): > 100 µM; TGI (SK-MEL-28 melanoma): > 100 µM; GI50 (SK-MEL-5 melanoma): > 100 µM; TGI (SK-MEL-5 melanoma): > 100 µM; GI50 (SK-OV-3 ovarian): 44.1 µM; TGI (SK-OV-3 ovarian): > 100 µM; GI50 (SN12C renal): > 100 µM; TGI (SN12C renal): > 100 µM; GI50 (SNB-19 CNS): > 100 µM; TGI (SNB-19 CNS): > 100 µM; GI50 (SNB-75 CNS): 12.9 µM; TGI (SNB-75 CNS): 91.6 µM; GI50 (SR leukemia): 61 nM; TGI (SR leukemia): > 100 µM; GI50 (SW-620 colon): > 100 µM; TGI (SW-620 colon): > 100 µM; GI50 (T-47D breast): > 100 µM; TGI (T-47D breast): > 100 µM; GI50 (TK-10 renal): > 100 µM; TGI (TK-10 renal): > 100 µM; GI50 (U251 CNS): > 100 µM; TGI (U251 CNS): > 100 µM; GI50 (UACC-257 melanoma): > 100 µM; TGI (UACC-257 melanoma): > 100 µM; GI50 (UACC-62 melanoma): > 100 µM; TGI (UACC-62 melanoma): > 100 µM; GI50 (UO-31 renal): > 100 µM; TGI (UO-31 renal): > 100 µM
